{
  "source": "patent US20210253520A1",
  "about": "“POLYMYXIN-BASED COMPOUNDS USEFUL AS ANTIBACTERIAL AGENTS” (UNIVERSITAT DE BARCELONA, priority 2018, published 2021)",
  "key": {"P. aeruginosa 36A": {"tested_on": "P. aeruginosa 36A", "experiment": "microbe, parasite or virus in culture", "assay_type": "cell-based", "conditions": "for MIC: Pseudomonas aeruginosa, resistance profile of strain P. aeruginosa 36A, Table 3, read-out: MIC", "procedure": "(§1) The antibacterial activity of the polymyxin lipopeptides was measured at ISGlobal following the microdilution test to determine the Minimal Inhibitory Concentrations (MIC) in sterile 96-well polypropilene plates. The concentration range was 32 a […] in Iso-Sensitest broth (Oxoid, ThermoFisher). The results were carried out in triplicate and the highest MIC is the one shown. Bacterial strains were grown in blood agar plates at 37° C. for 17 h. Fresh colonies were used to prepare a McFarland 0.5 solution that was finally added to the plates at 1 to 100 dilution\n(§2) Samples of sensitive and multi-drug resistant bacteria were: E. coli ATCC 25922 E. coli MB1410; K. pneumoniae MB674; P. aeruginosa ATCC 27853; P. aeruginosa 36A."}, "P. aeruginosa ATCC 27853": {"tested_on": "P. aeruginosa ATCC 27853", "experiment": "microbe, parasite or virus in culture", "assay_type": "cell-based", "conditions": "for MIC: resistance profile of strain P. aeruginosa ATCC 27853, Table 3", "procedure": "as §1, §2"}, "E. coli ATCC 25922": {"tested_on": "E. coli ATCC 25922", "experiment": "microbe, parasite or virus in culture", "assay_type": "cell-based", "procedure": "as §1, §2"}, "K. pneumoniae MB674": {"tested_on": "K. pneumoniae MB674", "assay_type": "cell-based", "procedure": "as §1, §2"}, "E. coli MB1410": {"tested_on": "E. coli MB1410", "experiment": "microbe, parasite or virus in culture", "assay_type": "cell-based", "conditions": "for MIC: Escherichia coli", "procedure": "as §1, §2"}, "Swiss CD-1 female mice": {"tested_on": "Swiss CD-1 female mice", "experiment": "Nephrotoxicity study, histopathological scoring of kidney lesions", "assay_type": "in vivo", "parameters": "key to Group Score (GS): mean of per-animal summed 0-4 lesion scores; higher = more nephrotoxic; key to Animal Score (AS), Partial AS: sum of 0-4 lesion parameter scores; higher = more nephrotoxic", "procedure": "Swiss CD-1 female mice weighing approximately 20-24 g (JANVIER Labs) were used, housed in an individually ventilated cage system under specific pathogen-free conditions, and water and food supplied ad libitum. This study plan and the conduct of the study were subjected to review by the Scientific Park of Barcelona Ethical Review Process with the current study procedure Code CEEA (AR) 9377-P2. Mice were administered at a dose of 12 mg/Kg every 2 hours for a total of 6 administrations (total dose 72 mg/Kg), unless otherwise stated. After 20 h, animals were anesthesized with isoflurane, kidneys extracted and prepared for histopathological evaluation, and finally animales were sacrificed. Kidney lesions (tubule dilation, necrosis, tubule casts, cell vacuolization, cell desquamation, and cell swelling) were quantified by microscopical observation (see for instance, Roberts, ACS Infect. Dis., 2015, 1, 568). Each one of these parameters was scored with values from 0 to 4 for each animal, as a global result of observations in kidney. Partial scores have been added up to obtain a final score for each animal (Animal Score, AS). The mean of animal score has been obtained to define the Group Score (GS). The higher the score, the more nephrotoxic a compound is. The nephrotoxicity score has been determined as according to the following table of approximated values: […]"}, "[1]": {"conditions": "Pseudomonas aeruginosa, ATCC27853, read-out: MIC"}, "[2]": {"conditions": "Escherichia coli, ATCC25922, resistance profile of strain E. coli ATCC 25922, Table 3, read-out: MIC"}, "[3]": {"conditions": "resistance profile of strain E. coli ATCC 25922, Table 3"}, "[4]": {"conditions": "resistance profile of strain E. coli MB1410, Table 3, read-out: MIC"}, "[5]": {"conditions": "Table 6, sum of mouse scores, 12 mg/Kg every 2 hours × 6, subcutaneous, total 72 mg/Kg"}, "[6]": {"conditions": "Table 7, 8 mg/Kg every 2 hours × 6, total 48 mg/Kg"}},
  "note": "Read-outs that look alike come from different tables or passages of the source. Numbered stars: 1 amine (or outer) side, 2 acyl side, 3 side chain; on linkers, the order of the positions; unused ones are H or OH. Bridge positions count the residues as written; N and C are the ends. Square brackets hold non-standard residues; d marks the D form. Peptide text beside a SMILES is read from it. X1 = C[C@@H](O)[C@@H](CS[*:1])N[*:2]; dGly(nOct) = CCCCCCCC[C@@H](N)C(=O)O; Dab = NCC[C@H](N)C(=O)O",
  "data": [
    {"molecule": "CO/N=C(\\C(=O)N[C@@H]1C(=O)N2C(C(=O)[O-])=C(C[N+]3(C)CCCC3)CS[C@H]12)c1csc(N)n1", "note": "[FEP, Cefepime]", "values": [
      {"measurement": "MIC", "setting": "P. aeruginosa 36A", "value": 8, "unit": "mg/L"},
      {"measurement": "MIC", "setting": "P. aeruginosa ATCC 27853; [1]", "value": 1, "unit": "mg/L"},
      {"measurement": "MIC", "setting": "E. coli ATCC 25922; [2]", "value": 0.06, "unit": "mg/L"}
    ]},
    {"molecule": "Gentamicin [Gm]", "values": [
      {"measurement": "MIC", "setting": "K. pneumoniae MB674; resistance profile of strain K. pneumoniae MB674, Table 3", "value": 2, "unit": "mg/L"},
      {"measurement": "MIC", "setting": "P. aeruginosa ATCC 27853", "value": 1.5, "unit": "mg/L"},
      {"measurement": "MIC", "setting": "E. coli ATCC 25922; [3]", "value": 0.5, "unit": "mg/L"}
    ]},
    {"molecule": "CC(C)(O/N=C(\\C(=O)N[C@@H]1C(=O)N2C(C(=O)[O-])=C(C[n+]3ccccc3)CS[C@H]12)c1csc(N)n1)C(=O)O", "note": "[CAZ, Ceftacidime]", "values": [
      {"measurement": "MIC", "setting": "P. aeruginosa ATCC 27853", "value": 0.5, "unit": "mg/L"},
      {"measurement": "MIC", "setting": "E. coli ATCC 25922; [3]", "value": 0.25, "unit": "mg/L"}
    ]},
    {"molecule": "C[C@@H](O)[C@H]1C(=O)N2C(C(=O)O)=C(S[C@@H]3CN[C@H](C(=O)N(C)C)C3)[C@H](C)[C@H]12", "note": "[MP, Meropenem]", "values": [
      {"measurement": "MIC", "setting": "E. coli MB1410; [4]", "value": 0.094, "unit": "mg/L"},
      {"measurement": "MIC", "setting": "P. aeruginosa ATCC 27853; [1]", "value": 0.38, "unit": "mg/L"},
      {"measurement": "MIC", "setting": "E. coli ATCC 25922; Escherichia coli, ATCC25922", "value": 0.125, "unit": "mg/L"}
    ]},
    {"molecule": "O=C(O)c1cn(C2CC2)c2cc(N3CCNCC3)c(F)cc2c1=O", "note": "[Cip, Ciprofloxacin]", "values": [
      {"measurement": "MIC", "setting": "P. aeruginosa ATCC 27853; [1]", "value": 0.25, "unit": "mg/L"},
      {"measurement": "MIC", "setting": "E. coli ATCC 25922; [2]", "value": 0.06, "unit": "mg/L"}
    ]},
    {"molecule": "NCC[C@H](O)C(=O)N[C@@H]1C[C@H](N)[C@@H](O[C@H]2O[C@H](CN)[C@@H](O)[C@H](O)[C@H]2O)[C@H](O)[C@H]1O[C@H]1O[C@H](CO)[C@@H](O)[C@H](N)[C@H]1O", "note": "[Ak, Amikacin]", "values": [
      {"measurement": "MIC", "setting": "P. aeruginosa 36A", "value": 2, "unit": "mg/L"},
      {"measurement": "MIC", "setting": "E. coli MB1410; [4]", "value": 6, "unit": "mg/L"},
      {"measurement": "MIC", "setting": "P. aeruginosa ATCC 27853; [1]", "value": 4, "unit": "mg/L"},
      {"measurement": "MIC", "setting": "E. coli ATCC 25922; [2]", "value": 2, "unit": "mg/L"}
    ]},
    {"molecule": "C[C@@H](O)[C@H]1C(=O)N2C(C(=O)O)=C(SCCN=CN)C[C@H]12", "note": "[IP, Imipenem]", "values": [
      {"measurement": "MIC", "setting": "E. coli MB1410; MB1410", "value": 0.125, "unit": "mg/L"},
      {"measurement": "MIC", "setting": "P. aeruginosa ATCC 27853; [1]", "value": 2, "unit": "mg/L"},
      {"measurement": "MIC", "setting": "E. coli ATCC 25922; Escherichia coli, ATCC25922", "value": 0.125, "unit": "mg/L"}
    ]},
    {"molecule": "CCCCCCCC[C@@H](N)C(=O)N[C@H](C(=O)N[C@@H](CCN)C(=O)N[C@H]1CSSC[C@H]([C@@H](C)O)NC(=O)[C@H](CCN)NC(=O)[C@H](CCN)NC(=O)[C@H](CC(C)C)NC(=O)[C@@H](Cc2ccccc2)NC(=O)[C@H](CCN)NC1=O)[C@@H](C)O", "note": "[Example 5, DAdec-Thr-Dab-cyclo(S-S)[Cys-Dab-DPhe-Leu-Dab-Dab-Ttr]] (H-[dGly(nOct)]T[Dab]C[Dab][dF]L[Dab][Dab]; linker 4-C via X1; N-terminus assumed)", "values": [
      {"measurement": "antibacterial activity (MIC)", "setting": "K. pneumoniae MB674; MB674", "value": 1, "unit": "mg/L"},
      {"measurement": "antibacterial activity (MIC)", "setting": "P. aeruginosa 36A; 36A", "value": 2, "unit": "mg/L"},
      {"measurement": "antibacterial activity (MIC)", "setting": "E. coli MB1410; MB1410", "value": 1, "unit": "mg/L"},
      {"measurement": "antibacterial activity (MIC)", "setting": "P. aeruginosa ATCC 27853; ATCC 27853", "value": 2, "unit": "mg/L"},
      {"measurement": "antibacterial activity (MIC)", "setting": "E. coli ATCC 25922; ATCC 25922", "value": 1, "unit": "mg/L"},
      {"measurement": "Mice found dead", "setting": "Swiss CD-1 female mice; Table 6, 12 mg/Kg every 2 hours × 6, subcutaneous, total 72 mg/Kg", "value": "None"},
      {"measurement": "Group Score (GS)", "setting": "Swiss CD-1 female mice; Table 6, mean of animal scores, 12 mg/Kg every 2 hours × 6, subcutaneous, total 72 mg/Kg", "value": 0.4},
      {"measurement": "Cell desquamation, Partial AS", "setting": "Swiss CD-1 female mice; [5]", "value": 0},
      {"measurement": "Cell vacuolization, Partial AS", "setting": "Swiss CD-1 female mice; [5]", "value": 0},
      {"measurement": "Cloudy swelling, Partial AS", "setting": "Swiss CD-1 female mice; [5]", "value": 3},
      {"measurement": "Tubular casts, Partial AS", "setting": "Swiss CD-1 female mice; [5]", "value": 0},
      {"measurement": "Tubular dilation, Partial AS", "setting": "Swiss CD-1 female mice; [5]", "value": 0},
      {"measurement": "Tubular necrosis, Partial AS", "setting": "Swiss CD-1 female mice; [5]", "value": 0},
      {"measurement": "Animal Score (AS), Partial AS", "setting": "Swiss CD-1 female mice; Table 6, sum over all mice, 12 mg/Kg every 2 hours × 6, subcutaneous, total 72 mg/Kg", "value": 3},
      {"measurement": "AS, Partial AS", "setting": "Swiss CD-1 female mice; [6]", "value": 0},
      {"measurement": "Cell vacuolization, Partial AS", "setting": "Swiss CD-1 female mice; [6]", "value": 0},
      {"measurement": "Cloudy swelling, Partial AS", "setting": "Swiss CD-1 female mice; [6]", "value": 0},
      {"measurement": "Group Score (GS)", "setting": "Swiss CD-1 female mice; [6]", "value": 0},
      {"measurement": "Mice found dead", "setting": "Swiss CD-1 female mice; [6]", "value": "None"},
      {"measurement": "Tubular casts, Partial AS", "setting": "Swiss CD-1 female mice; [6]", "value": 0},
      {"measurement": "Tubular dilation, Partial AS", "setting": "Swiss CD-1 female mice; [6]", "value": 0},
      {"measurement": "Tubular necrosis, Partial AS", "setting": "Swiss CD-1 female mice; [6]", "value": 0}
    ]}
  ]
}
